Experimental data from US8481495B2 (TetraLogic Pharmaceuticals Corporation, priority 2009, dated 2013).

Key:
XIAP BIR-3 = biological target: T1, XIAP BIR-3 (Homo sapiens, UniProt P98170); experiment: Fluorescence polarization binding to XIAP BIR-3 with labeled peptide AbuRPF-K(5-Fam)-NH2; conditions: XIAP BIR-3, 40 nM BIR3, 5 nM labeled peptide, 15 min RT, pH 7.5; read-out: XIAP, nM (binding affinity KD, as range)
T1 construct: 40 nM of the respective IAP BIR3
Method in brief: (§1)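 Competitive FP with 5 nM 5-Fam-labelled Smac-mimetic peptide and 40 nM IAP BIR3, 15 min at RT in 0.1 M potassium phosphate pH 7.5 with bovine γ-globulin. Polarization (mP) read at 485/520 nm; KD reported as ranges A–D (A <0.1 μM to D >10 μM).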

cIAP-1 BIR-3 = biological target: T2, cIAP-1 BIR-3 (Homo sapiens, UniProt Q13490); experiment: Fluorescence polarization binding to cIAP-1 BIR-3 with labeled peptide AbuRPF-K(5-Fam)-NH2; conditions: cIAP-1 BIR-3, 40 nM BIR3, 5 nM labeled peptide, 15 min RT, pH 7.5; read-out: cIAP1, nM (binding affinity KD, as range)
T2 construct: 40 nM of the respective IAP BIR3
Method in brief: as §1

SK-OV-3 cells = experiment: MTT cell growth inhibition assay in ovarian cancer cell line SK-OV-3; type: cell-based; conditions: Homo sapiens, 72 hrs incubation, read-out: SKOV3, nM (CC50, concentration giving 50% cell survival, as range)
Method in brief: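 SK-OV-3 cells (5,000 per well, McCoy's medium with 10% FBS) exposed to compounds at 0.003-10 μM for 72 h at 37°C, followed by MTT for 3 h, DMSO solubilisation and OD at 535 nm. CC50 is the concentration giving 50% survival relative to control wells, reported in ranges (A <0.1 μM to D >10 μM).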

T2 sequence (Q13490 253-363 limits assumed): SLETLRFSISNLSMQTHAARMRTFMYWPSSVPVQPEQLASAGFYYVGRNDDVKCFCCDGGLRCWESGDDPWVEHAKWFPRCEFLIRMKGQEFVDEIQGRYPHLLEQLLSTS
T1 sequence (P98170 241-356 limits assumed): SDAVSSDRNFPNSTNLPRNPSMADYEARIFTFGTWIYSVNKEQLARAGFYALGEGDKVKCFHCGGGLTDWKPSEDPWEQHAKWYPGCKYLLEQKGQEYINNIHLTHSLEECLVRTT

SMILES | Kd (XIAP BIR-3) | Kd (cIAP-1 BIR-3) | CC50 (SK-OV-3 cells)
CNC(=O)N1C[C@H](C(=O)Nc2cccc3ccccc23)[C@@H]2[C@H]1CCN2C(=O)[C@@H](NC(=O)[C@H](C)NC)C(C)(C)C [Example 42, 4-[3,3-Dimethyl-2-(2-methylamino-propionylamino)-butyryl]-hexahydro-pyrrolo[3,2-b]pyrrole-1,3-dicarboxylic acid 1-methylamide 3-naphthalen-1-ylamide] | < 100 nM | < 100 nM | < 100 nM
CN[C@@H](C)C(=O)N[C@H](C(=O)N1CC[C@@H]2[C@H]1[C@@H](C(=O)N[C@@H]1CCCc3ccccc31)CN2c1ncccn1)C1CCCCC1 [Example 43, 4-[2-Cyclohexyl-2-(2-methylamino-propionylamino)-acetyl]-1-pyrimidin-2-yl-octahydro-pyrrolo[3,2-b]pyrrole-3-carboxylic acid (1,2,3,4-tetrahydro-naphthalen-1-yl)-amide] | 100 to 1000 nM | < 100 nM | < 100 nM
CN[C@@H](C)C(=O)N[C@H](C(=O)N1CC[C@@H]2[C@H]1[C@@H](C(=O)Nc1cccc3cnccc13)CN2S(C)(=O)=O)C(C)(C)C [Example 44, 4-[3,3-Dimethyl-2-(2-methylamino-propionylamino)-butyryl]-1-methanesulfonyl-octahydro-pyrrolo[3,2-b]pyrrole-3-carboxylic acid isoquinolin-5-ylamide] | 100 to 1000 nM | < 100 nM | < 100 nM
CN[C@@H](C)C(=O)N[C@H](C(=O)N1CC[C@@H]2[C@H]1[C@@H](C(=O)Nc1cccc3ccncc13)CN2S(C)(=O)=O)C(C)(C)C [Example 45, 4-[3,3-Dimethyl-2-(2-methylamino-propionylamino)-butyryl]-1-methanesulfonyl-octahydro-pyrrolo[3,2-b]pyrrole-3-carboxylic acid isoquinolin-8-ylamide] | 100 to 1000 nM | < 100 nM | 100 to 1000 nM
CN[C@@H](C)C(=O)N[C@H](C(=O)N1CC[C@@H]2[C@H]1[C@@H](C(=O)Nc1cccc3cccnc13)CN2S(C)(=O)=O)C(C)(C)C [Example 46, 4-[3,3-Dimethyl-2-(2-methylamino-propionylamino)-butyryl]-1-methanesulfonyl-octahydro-pyrrolo[3,2-b]pyrrole-3-carboxylic acid quinolin-8-ylamide] | 100 to 1000 nM | < 100 nM | < 100 nM
CN[C@@H](C)C(=O)N[C@H](C(=O)N1CC[C@@H]2[C@H]1[C@@H](C(=O)Nc1cccc3ncccc13)CN2S(C)(=O)=O)C(C)(C)C [Example 47, 4-[3,3-Dimethyl-2-(2-methylamino-propionylamino)-butyryl]-1-methanesulfonyl-octahydro-pyrrolo[3,2-b]pyrrole-3-carboxylic acid quinolin-5-ylamide] | < 100 nM | < 100 nM | < 100 nM
CN[C@@H](C)C(=O)N[C@H](C(=O)N1CC[C@@H]2[C@H]1[C@@H](C(=O)Nc1cc(C)nc3ccccc13)CN2S(C)(=O)=O)C(C)(C)C [Example 48, 4-[3,3-Dimethyl-2-(2-methylamino-propionylamino)-butyryl]-1-methanesulfonyl-octahydro-pyrrolo[3,2-b]pyrrole-3-carboxylic acid (2-methyl-quinolin-4-yl)-amide] | < 100 nM | < 100 nM | < 100 nM
CN[C@@H](C)C(=O)N[C@H](C(=O)N1CC[C@@H]2[C@H]1[C@@H](C(=O)Nc1nccc3ccccc13)CN2S(C)(=O)=O)C(C)(C)C [Example 49, 4-[3,3-Dimethyl-2-(2-methylamino-propionylamino)-butyryl]-1-methanesulfonyl-octahydro-pyrrolo[3,2-b]pyrrole-3-carboxylic acid isoquinolin-1-ylamide] | < 100 nM | < 100 nM | < 100 nM
CN[C@@H](C)C(=O)N[C@H](C(=O)N1CC[C@@H]2[C@H]1[C@@H](C(=O)Nc1ccc3ncccc3c1)CN2S(C)(=O)=O)C(C)(C)C [Example 50, 4-[3,3-Dimethyl-2-(2-methylamino-propionylamino)-butyryl]-1-methanesulfonyl-octahydro-pyrrolo[3,2-b]pyrrole-3-carboxylic acid quinolin-6-ylamide] | 100 to 1000 nM | < 100 nM | < 100 nM
CN[C@@H](C)C(=O)N[C@H](C(=O)N1CC[C@@H]2[C@H]1[C@@H](C(=O)Nc1cnc3ccccc3c1)CN2S(C)(=O)=O)C(C)(C)C [Example 51, 4-[3,3-Dimethyl-2-(2-methylamino-propionylamino)-butyryl]-1-methanesulfonyl-octahydro-pyrrolo[3,2-b]pyrrole-3-carboxylic acid quinolin-3-ylamide] | 100 to 1000 nM | < 100 nM | < 100 nM
CN[C@@H](C)C(=O)N[C@H](C(=O)N1CC[C@@H]2[C@H]1[C@@H](C(=O)Nc1ccc3ccccc3n1)CN2S(C)(=O)=O)C(C)(C)C [Example 52, 4-[3,3-Dimethyl-2-(2-methylamino-propionylamino)-butyryl]-1-methanesulfonyl-octahydro-pyrrolo[3,2-b]pyrrole-3-carboxylic acid quinolin-2-ylamide] | 100 to 1000 nM | < 100 nM | < 100 nM
CN[C@@H](C)C(=O)N[C@H](C(=O)N1CC[C@@H]2[C@H]1[C@@H](C(=O)Nc1cccc3ccccc13)CN2C(=O)CNC(=O)C(=O)NCC(=O)N1C[C@H](C(=O)Nc2cccc3ccccc23)[C@@H]2[C@H]1CCN2C(=O)[C@@H](NC(=O)[C@H](C)NC)C(C)(C)C)C(C)(C)C [Example 53, N,N′-Bis-{2-[4-[3,3-dimethyl-2-(2-methylamino-propionylamino)-butyryl]-3-(naphthalen-1-ylcarbamoyl)-hexahydro-pyrrolo[3,2-b]pyrrol-1-yl]-2-oxo-ethyl}-oxalamide] | < 100 nM | < 100 nM | < 100 nM
CN[C@@H](C)C(=O)N[C@H](C(=O)N1CC[C@@H]2[C@H]1[C@@H](C(=O)Nc1ccc(F)cc1)CN2C(=O)CNC(=O)C(=O)NCC(=O)N1C[C@H](C(=O)Nc2ccc(F)cc2)[C@@H]2[C@H]1CCN2C(=O)[C@@H](NC(=O)[C@H](C)NC)C(C)(C)C)C(C)(C)C [Example 54, N,N′-Bis-{2-[4-[3,3-dimethyl-2-(2-methylamino-propionylamino)-butyryl]-3-(4-fluoro-phenylcarbamoyl)-hexahydro-pyrrolo[3,2-b]pyrrol-1-yl]-2-oxo-ethyl}-oxalamide] | < 100 nM | < 100 nM | < 100 nM
